# In ChEMBL document CHEMBL5537154, “Smart glypican-3-targeting peptide-chlorin e6 conjugates for targeted photodynamic therapy of hepatocellular carcinoma” (Eur J Med Chem, 2024):
# The source made the active and inactive calls. The calls are words filed in the database; no cut-off is given here. Peptide text beside a SMILES is read from it.
# Experiments:
# [1] = Drug distribution in tumor of BALB/C nude mouse model xenografted with human HepG2 cells at 1 uM/kg, iv measured after 2 hrs by fluorescence spectrophotometry; assay type: ADME, organism-based, Neoplasm; conditions: in vivo
# [2] = Toxicity in BALB/C nude mouse model xenografted with human HepG2 cells assessed as change in spleen weight at 1 to 2 uM/kg, iv administered every two days for 21 days along with 250 mW/cm2 light irradiation at 660 nm for 10 mins at 1 hr post-compound administration; assay type: organism-based; conditions: in vivo, 505.17 h, dose 1-2 µM/Kg, time 505.166 hrs
# Huh-7 = assay: Induction of cell cycle arrest at S phase in human Huh-7 cells at 1 uM under 10 J/cm2 light irradiation at 660 nm by flow cytometry; assay type: functional, cell-based
# [3] = Drug uptake in lysosome of human Huh-7 cells at 2 uM incubated for 24 hrs by lyso tracker green DND-26 probe based laser confocal microscopy; assay type: ADME, subcellular; conditions: huh-7, 24 h
# [4] = Drug distribution in tumor of BALB/C nude mouse model xenografted with human HepG2 cells at 1 to 2 uM/kg, iv measured for 1 to 6 hrs by fluorescence imaging analysis; assay type: ADME, organism-based, Neoplasm; conditions: in vivo, dose lower 1 µM/Kg, time lower 1 hrs, dose upper 2 µM/Kg, time upper 6 hrs
# HepG2 [5] = assay: Induction of ROS generation in human HepG2 cells at 10 uM preincubated for 24 hrs followed by DCFH-DA probe addition and further incubated under dark condition for 20 mins prior and 20 mins post- light irradiation of 10 J/cm2 at 660 nm by flow cytometry; assay type: functional, cell-based; conditions: time 24.66 hrs
# HepG2 [6] = assay: Antiproliferative activity against human HepG2 cells under dark condition by CCK8 assay; assay type: functional, cell-based
# HepG2 [7] = assay: Induction of apoptosis in human HepG2 cells assessed as early apoptotic cells under dark condition at 2.5 uM incubated for 24 hrs by Annexin V-FITC/PI staining based flow cytometry relative to control; assay type: functional
# HepG2 [8] = assay: Induction of apoptosis in human HepG2 cells assessed as early apoptotic cells at 5 uM incubated for 24 hrs followed by 10 J/cm2 of light irradiation at 660 nm measured after 24 hrs by Annexin V-FITC/PI staining based flow cytometry relative to control; assay type: functional; conditions: time 48 hrs
# [9] = Toxicity in BALB/C nude mouse model xenografted with human HepG2 cells assessed as body weight loss at 1 to 2 uM/kg, iv administered every two days for 21 days along with 250 mW/cm2 light irradiation at 660 nm for 10 mins at 1 hr post-compound administration; assay type: organism-based; conditions: in vivo, 505.17 h, dose 1-2 µM/Kg, time 505.166 hrs
# HepG2 [10] = assay: Induction of cell cycle arrest at S phase in human HepG2 cells at 1 uM by flow cytometry relative to control; assay type: functional
# [11] = Drug distribution in spleen of BALB/C nude mouse model xenografted with human HepG2 cells at 1 to 2 uM/kg, iv measured for 1 to 4 hrs by fluorescence imaging analysis; assay type: ADME, organism-based; conditions: in vivo, dose lower 1 µM/Kg, time lower 1 hrs, dose upper 2 µM/Kg, time upper 4 hrs
# HepG2 [12] = assay: Induction of apoptosis in human HepG2 cells assessed as late apoptotic cells at 2.5 uM incubated for 24 hrs followed by 10 J/cm2 of light irradiation at 660 nm measured after 24 hrs by Annexin V-FITC/PI staining based flow cytometry relative to control; assay type: functional; conditions: time 48 hrs
# HepG2 [13] = assay: Induction of apoptosis in human HepG2 cells assessed as necrotic cells under dark condition at 2.5 uM incubated for 24 hrs by Annexin V-FITC/PI staining based flow cytometry relative to control; assay type: functional
# [14] = Drug distribution in lung of BALB/C nude mouse model xenografted with human HepG2 cells at 1 to 2 uM/kg, iv measured for 1 to 4 hrs by fluorescence imaging analysis; assay type: ADME, organism-based; conditions: in vivo, dose lower 1 µM/Kg, time lower 1 hrs, dose upper 2 µM/Kg, time upper 4 hrs
# [15] = Drug distribution in BALB/C nude mouse model xenografted with human HepG2 cells at 1 to 2 uM/kg, iv measured after 1 hr by fluorescence imaging analysis; assay type: ADME, organism-based; conditions: in vivo, dose 1-2 µM/Kg
# MCF7 [16] = assay: Antiproliferative activity against human MCF7 cells under dark condition by CCK8 assay; assay type: functional, cell-based
# MCF7 [17] = assay: Antiproliferative activity against human MCF7 cells under 10 J/cm2 light irradiation at 660 nm by CCK8 assay; assay type: functional, cell-based; conditions: MCF7, light or radiation study
# [18] = Drug uptake in human HepG2 cells at 10 uM by confocal microscopy; assay type: ADME, cell-based; conditions: hepg2, 10 µM, TDE = time-dependent effect, time 4-24 hrs
# HepG2 [19] = assay: Induction of apoptosis in human HepG2 cells assessed as early apoptotic cells under dark condition at 5 uM incubated for 24 hrs by Annexin V-FITC/PI staining based flow cytometry relative to control; assay type: functional
# HepG2 [20] = assay: Induction of apoptosis in human HepG2 cells assessed as necrotic cells at 2.5 uM incubated for 24 hrs followed by 10 J/cm2 of light irradiation at 660 nm measured after 24 hrs by Annexin V-FITC/PI staining based flow cytometry relative to control; assay type: functional; conditions: time 48 hrs
# HepG2 [21] = assay: Antitumor activity in human HepG2 cells xenografted in BALB/C nude mouse model assessed as tumor growth inhibition at 1 to 2 uM/kg, iv administered every two days for 21 days along with 250 mW/cm2 light irradiation at 660 nm for 10 mins at 1 hr post-compound administration relative to control; assay type: functional; conditions: dose 1-2 µM/Kg, time 505.166 hrs, 505.17 h, at 1 to 2 µmol/kg
# [22] = Drug uptake in human HepG2 cells at 500 nM incubated for 2 hrs by flow cytometry; assay type: ADME, cell-based; conditions: hepg2, 2 h, 0.5 µM
# [23] = Drug distribution in tumor of BALB/C nude mouse model xenografted with human HepG2 cells at 1 to 2 uM/kg, iv measured for 1 to 4 hrs by fluorescence imaging analysis; assay type: ADME, organism-based, Neoplasm; conditions: in vivo, dose lower 1 µM/Kg, time lower 1 hrs, dose upper 2 µM/Kg, time upper 4 hrs
# chymotrypsin = chymotrypsin (Homo sapiens, UniProt P17538+P40313+Q6GPI1+Q99895); assay: Stability of compound assessed as chymotrypsin (unknown origin)-mediated compound degradation in PBS at pH 7.4 by measuring half life; assay type: ADME, protein assay
# [24] = Antiproliferative activity against human HUVEC cells under dark condition by CCK8 assay; assay type: toxicity, cell-based
# HepG2 [25] = assay: Antiproliferative activity against human HepG2 cells under 10 J/cm2 light irradiation at 660 nm by CCK8 assay; assay type: functional, cell-based; conditions: HepG2, light or radiation study
# [26] = Toxicity in BALB/C nude mouse model xenografted with human HepG2 cells assessed as drug tolerance at 1 to 2 uM/kg, iv administered every two days for 21 days along with 250 mW/cm2 light irradiation at 660 nm for 10 mins at 1 hr post-compound administration; assay type: organism-based; conditions: in vivo, 505.17 h, dose 1-2 µM/Kg, time 505.166 hrs
# [27] = Drug distribution in tumor of BALB/C nude mouse model xenografted with human Huh-7 cells at 1 to 2 uM/kg, iv measured for 1 to 6 hrs by fluorescence imaging analysis; assay type: ADME, organism-based, Neoplasm; conditions: in vivo, dose lower 1 µM/Kg, time lower 1 hrs, dose upper 2 µM/Kg, time upper 6 hrs
# [28] = Drug uptake in human HUVEC cells at 500 nM incubated for 0.5 hrs by flow cytometry; assay type: ADME, cell-based; conditions: 0.5 µM
# [29] = Drug uptake in human MCF7 cells at 10 uM incubated for 4 hrs by confocal microscopy; assay type: ADME, cell-based; conditions: mcf7, 4 h
# HepG2 [30] = assay: Induction of apoptosis in human HepG2 cells assessed as late apoptotic cells under dark condition at 5 uM incubated for 24 hrs by Annexin V-FITC/PI staining based flow cytometry relative to control; assay type: functional
structure (smiles),measurement,setting,value
C=Cc1c(C)c2cc3nc(c(CC(=O)O)c4[nH]c(cc5nc(cc1[nH]2)C(C)=C5CC)c(C)c4C(=O)NCCCC(=O)N[C@@H](CC(=O)O)C(=O)N[C@@H](Cc1cnc[nH]1)C(=O)N[C@@H](CC(C)C)C(=O)N[C@@H](C)C(=O)N[C@@H](CO)C(=O)N[C@@H](CC(C)C)C(=O)N[C@@H](Cc1c[nH]c2ccccc12)C(=O)N[C@@H](Cc1c[nH]c2ccccc12)C(=O)NCC(=O)N[C@H](C(=O)N[C@@H](CCC(=O)O)C(=O)N[C@@H](CC(C)C)C(=O)O)[C@@H](C)O)[C@@H](CCC(=O)O)[C@@H]3C (HELM PEPTIDE1{[C=Cc1c(C)c2cc3nc(c(CC(=O)O)c4[nH]c(cc5nc(cc1[nH]2)C(C)=C5CC)c(C)c4C(=O)[*:2])[C@@H](CCC(=O)O)[C@@H]3C].[O=C(CCCN[*:1])[*:2]].D.H.L.A.S.L.W.W.G.T.E.L}$$$$V2.0),Drug uptake,[1],Active
same,Activity,[2],Non-Toxic
same,Activity,Huh-7,Active
same,Drug uptake,[3],Active
same,Drug uptake,[4],Active
same,Activity,HepG2 [5],Active
same,IC50,HepG2 [6],> 100 µM
same,Activity,HepG2 [7],2.7%
same,Activity,HepG2 [8],8.4%
same,Activity,[9],Non-Toxic
same,Activity,HepG2 [10],21.8%
same,Drug uptake,[11],Not Active
same,Activity,HepG2 [12],17.8%
same,Activity,HepG2 [13],0.2%
same,Drug uptake,[14],Not Active
same,Drug uptake,[15],Active
same,IC50,MCF7 [16],> 100 µM
same,IC50,MCF7 [17],> 10 µM
same,Drug uptake,[18],Tde
same,Activity,HepG2 [19],2.3%
same,Activity,HepG2 [20],74%
same,TGI,HepG2 [21],100%
same,Drug uptake,[22],Dose-Dependent Effect
same,Drug uptake,[23],Active
same,half-life,chymotrypsin,7.6 h
same,IC50,[24],> 200 µM
same,IC50,HepG2 [25],0.82 µM
same,Activity,[26],Non-Toxic
same,Drug uptake,[27],Active
same,Drug uptake,[28],Not Active
same,Drug uptake,[29],Not Active
same,Activity,HepG2 [30],1.7%
